Measurements reported in patent US8314255B2, “Use of phthalimide and/or sulphonamide derivatives in the treatment of diseases which require reducing the TNF- α levels and an exogenous source of nitric oxide, phthalimide derivatives, sulphonamide derivatives, and a method for obtaining a sulphonamide derivative” (priority 2007, dated 2012).

Tests used:
[1] = tested on: mouse ear edema induced by capsaicin; test: Mouse ear edema assay induced by capsaicin; type: in vivo; details: 300 μmol/Kg i.p., capsaicin 250 μg/ear 1 hour after administration
Description: This assay is characterized by an acute inflammatory response of the ear, with development of edema, and it was performed in order to evaluate the anti-inflammatory activity of the synthesized compounds.
In this assay, indomethacin was used as a control at 100 μmol/Kg, and the phthalimide derivatives were firstly evaluated at 300 μmol/Kg via i.p. From table 4, it can be observed that compounds IC and IE show an ear edema inhibition percentage higher than 64%. […] The other compounds, however, show a similar activity when compared to indomethacin (FIG. 01), taking into consideration the standard error.
This assay was performed using Swiss mice from both genders weighing from 18 to 30 grams. The animals were fasted for 8 hours with free access to water. This assay consists in locally administering (right ear) 20 μl of a capsaicin solution (250 μg/ear) diluted in acetone, 1 hour after the i.p. administration (diluted in 0.5% gum arabic). The left ear (control) received the carrier in which capsaicin was diluted (acetone) and the right ear received capsaicin. This assay is characterized by an acute inflammatory response of the ear, with development of edema. The animals were sacrificed and their ears were weighted to obtain the inflammation index. A biopsy (8 mm in diameter) of the ear was carried out. Next, the weights of the inflamed ears were compared against the weights of the contralateral ear (control ear) which were not treated with the phlogistic agent. The edema inhibition percentage was calculated by subtracting the ear treated with the carrier by that treated with capsaicin from each group of animals treated with the test substances, and then it was divided by the difference between the groups of the irritating agents and the control groups.

[2] = tested on: Salmonella typhimurium TA102; test: AMES test, mutagenic evaluation in Salmonella typhimurium TA102 strain with/without metabolic activation (S9); type: cell-based
Description: The procedure was firstly developed by (MARON, D. M. and AMES, B. N. Mut. Res. v. 113, pp. 173-215, 1983)
For this assay, Salmonella typhimurium TA100 and TA102 strains from the mutagenicity laboratory of the “Faculdade de Ciências Farmacêuticas—UNESP Araraquara” were used. Such strains have the following characteristics: (AMES, 1983)
The positive controls are mutagenic compounds specific for each strain and test condition, with 25 μL/plate of sodium azide (1.25 μg/plate) and 100 μL of mitomycin (0.5 μg/plate) being the controls for TA100 and TA102, respectively, in the absence of metabolic activation. For assays with metabolic activation, the positive control for TA100 is 50 μL 2-antramine (1.25 μg/plate) and for TA102 it is 50 μL 2-aminofluorene (1.25 μg/plate).
The preincubation method was used.
In laminar flow, Salmonella typhimurium (TA100 and TA 102) strains were inoculated individually with a platinum loop, in the respective nutrient broths and maintained at 37° C., under constant stirring (160 rpm) during 14 hours, in order to achieve a density of 1 to 2×10^9 bacteria/mL.
Different concentrations of the compounds were added into 100 μL of 0.2M phosphate buffer pH 7.4 (or 500 μL of the mixture S9 in metabolic activation assays) and incubated for 20-30 minutes at 37° C. Solutions containing the compounds had DMSO as the solvent. Thereafter, 2 mL of top agar supplemented with traces of histidine and biotin was added, homogenized and plated in glycosylated minimum medium. After solidification of the top agar, the plates were incubated for 48 hours at a 37° C. Then, the counting of the number of revertant colonies per plate was performed. All tested concentrations, positive and negative controls were run in triplicate.
After 48 hours, the revertant colonies were counted manually, and the protoCOL Colony Counter Version 3.15.630 (1998-2001) SYNBIOSIS LTD system was used for the positive control.
The final data obtained from the assay was analyzed using the statistical software Salanal (Salmonella Assay Analysis) version 1.0 from the Research Triangle Institute, RTP, North Carolina, USA. Such software allows the dose-response effect to be evaluated by means of analysis of variance (ANOVA-test F) computations between the measurement of the number of revertants at the different tested concentrations (doses) and the negative control, followed by a linear regression. The software model chosen for analyzing the data was Bernstein's (BERNSTEIN, L. et al. Mutat. Res. v. 97, p. 267-281, 1982). The slope of the straight line from the linear portion of the dose-response curve is also provided by this software and corresponds to the number of revertants induced per measurement unit of the analyzed sample.
From the results, the mutagenicity ratio (MR) was computed for each analyzed dose from each compound. MR is given by the following equation:
MR=average number of revertants per test plate (spontaneous+induced revertants) […] average number of revertants per plate of the negative control (spontaneous revertants)
The spontaneous growing means that the number of revertants which developed on the plate, regardless of being induced or not, wherein values higher or equal to 2 are considered as a positive response (VALENT, G. V. et al. Env. Toxicol. Water Quality. v. 8, p. 371-381, 1993).
The mutagenicity test with metabolic activation system was performed with a microsomal fraction S9 (S9 mix) prepared from a liver homogenizate from Sprague Dawley rats, previously treated with Aroclor 1254, acquired in the freeze-dried form.
The procedure for this assay is the same, however, instead of the buffer, 500 μL of the S9 mixture should be added.
The S9 mixture has a viability of 4 hours from preparation when put on ice. The plates are then incubated for 48 hours at 37° C. After the required time has elapsed, the counting of the revertant colonies was carried out. All tested concentrations, positive and negative controls were run in triplicate.

Nc1ccc(S(=O)(=O)NO)cc1 [Compound IIA, 4-amino-N-hydroxybenzenesulphonamide]
Average inhibition % (ear edema) [1]: 49.24% | mutagenicity ratio (MR) ([2]; TA 102, +S9, 0.98 μmol/plate): 1.03 | number of revertants per plate ([2]; TA 102, +S9, 0.98 μmol/plate): 385 ± 33.1 revertants/plate | mutagenicity ratio (MR) ([2]; TA 102, +S9, 1.96 μmol/plate): 0.87 | number of revertants per plate ([2]; TA 102, +S9, 1.96 μmol/plate): 323 ± 5.54 revertants/plate | mutagenicity ratio (MR) ([2]; TA 102, +S9, 3.92 μmol/plate): 1.13 | number of revertants per plate ([2]; TA 102, +S9, 3.92 μmol/plate): 423.7 ± 22 revertants/plate | mutagenicity ratio (MR) ([2]; TA 102, +S9, 7.85 μmol/plate): 1.03 | number of revertants per plate ([2]; TA 102, +S9, 7.85 μmol/plate): 387 ± 14.4 revertants/plate | mutagenicity ratio (MR) ([2]; TA 102, +S9, 15.7 μmol/plate): 0.8 | number of revertants per plate ([2]; TA 102, +S9, 15.7 μmol/plate): 300 ± 4.9 revertants/plate | mutagenicity ratio (MR) ([2]; TA 102, −S9, 0.98 μmol/plate): 1.12 | number of revertants per plate ([2]; TA 102, −S9, 0.98 μmol/plate): 222 ± 12 revertants/plate | mutagenicity ratio (MR) ([2]; TA 102, −S9, 1.96 μmol/plate): 1.22 | number of revertants per plate ([2]; TA 102, −S9, 1.96 μmol/plate): 241 ± 13 revertants/plate | mutagenicity ratio (MR) ([2]; TA 102, −S9, 3.92 μmol/plate): 1.27 | number of revertants per plate ([2]; TA 102, −S9, 3.92 μmol/plate): 251 ± 19.2 revertants/plate | mutagenicity ratio (MR) ([2]; TA 102, −S9, 7.85 μmol/plate): 1.17 | number of revertants per plate ([2]; TA 102, −S9, 7.85 μmol/plate): 232 ± 13.1 revertants/plate | mutagenicity ratio (MR) ([2]; TA 102, −S9, 15.7 μmol/plate): 1.06 | number of revertants per plate ([2]; TA 102, −S9, 15.7 μmol/plate): 210 ± 23 revertants/plate

O=C1c2ccccc2C(=O)N1CCO[N+](=O)[O-] [IB, 2-(1,3-dioxo-1,3-dihydro-2H-isoindol-2-yl)ethyl nitrate]
Average inhibition % (ear edema) [1]: 46.55% | mutagenicity ratio (MR) ([2]; TA 102, +S9, 0.01 μmol/plate): 1.13 | number of revertants per plate ([2]; TA 102, +S9, 0.01 μmol/plate): 249 ± 11.7 revertants/plate | mutagenicity ratio (MR) ([2]; TA 102, +S9, 0.021 μmol/plate): 1.22 | number of revertants per plate ([2]; TA 102, +S9, 0.021 μmol/plate): 269 ± 10.6 revertants/plate | mutagenicity ratio (MR) ([2]; TA 102, +S9, 0.042 μmol/plate): 1.09 | number of revertants per plate ([2]; TA 102, +S9, 0.042 μmol/plate): 239 ± 22.5 revertants/plate | mutagenicity ratio (MR) ([2]; TA 102, +S9, 0.085 μmol/plate): 1.12 | number of revertants per plate ([2]; TA 102, +S9, 0.085 μmol/plate): 247 ± 21.4 revertants/plate | mutagenicity ratio (MR) ([2]; TA 102, +S9, 0.17 μmol/plate): 0.97 | number of revertants per plate ([2]; TA 102, +S9, 0.17 μmol/plate): 214 ± 32 revertants/plate | mutagenicity ratio (MR) ([2]; TA 102, −S9, 0.01 μmol/plate): 1.22 | number of revertants per plate ([2]; TA 102, −S9, 0.01 μmol/plate): 394 ± 30 revertants/plate | mutagenicity ratio (MR) ([2]; TA 102, −S9, 0.021 μmol/plate): 1.55 | number of revertants per plate ([2]; TA 102, −S9, 0.021 μmol/plate): 452 ± 23 revertants/plate | mutagenicity ratio (MR) ([2]; TA 102, −S9, 0.042 μmol/plate): 1.25 | number of revertants per plate ([2]; TA 102, −S9, 0.042 μmol/plate): 502 ± 14 revertants/plate | mutagenicity ratio (MR) ([2]; TA 102, −S9, 0.085 μmol/plate): 1.34 | number of revertants per plate ([2]; TA 102, −S9, 0.085 μmol/plate): 405 ± 24 revertants/plate | mutagenicity ratio (MR) ([2]; TA 102, −S9, 0.17 μmol/plate): 1.54 | number of revertants per plate ([2]; TA 102, −S9, 0.17 μmol/plate): 433 ± 35.4 revertants/plate
